Laboratory results reported in patent publication US20160145258A1, “Inhibitor Crystalline Form and Preparation Method and Use Thereof” (Hangzhou Pushai Pharmaceutical Technology Co., LTD., priority 2013, published 2016).
“Also recorded” adds a separate entry of the source.

Experiments:
Type in all cases: physicochemical
[1] = Competitive slurry 1 in nitromethane, solids characterized by XRPD; conditions: equal quantity (5 mg) of Form I, II, III, IV and VIII in nitromethane, room temperature, 7 days
From the text: (§1) The slurry method described in the present invention refers to stirring of a supersaturated solution of the sample (with undissolved solids) in various solvent systems for crystallization. Usually, the duration is 14 days.

[2] = Hygroscopicity by dynamic vapor sorption (DVS) isothermal sorption; conditions: for Weight change within 20%-80% RH range: DVS isothermal sorption, relative humidity 20%-80%; for Hygroscopicity in words (compared to Form I): from DVS weight change within 20-80% RH
Protocol: Dynamic vapor sorption (DVS) data were collected using TA Instruments Q500 TGA. The instrument control software was Thermal Advantage, and the analytical software was Universal Analysis. Usually, 1-10 mg of the sample was placed in a platinum pan, and the weight change of the sample during studies was recorded. The relative humidity was usually programed to change from 50% to 80% to 0% and then back to 50%, and an isothermal sorption plot could be generated. Depending on specific situations, different sorption and desorption procedures might be used. Hygroscopicity comparison: DVS isothermal sorption curves were used, and weight changes within the 20%-80% RH range were measured.

[3] = Competitive slurry 2 in mixed solvent of isopropanol and water, solids characterized by XRPD; conditions: equal quantity (5 mg) of Form VI and Form IX in 1 mL isopropanol and water (1:4, v/v), room temperature, 7 days
From the text: as §1

[4] = Competitive slurry of Form IX and Form I in mixed solvents of ethanol and water, solids characterized by XRPD; conditions: equal quantity (4 mg) of Form IX and Form I in 1 mL ethanol and water (1:1, 1:4, 1:5 and 1:10), room temperature, 7 days

Row | Competitive slurry 1: crystal form after slurry [1] | Weight change within 20%-80% RH range [2] | Hygroscopicity in words (compared to Form I) ([2]; listed as Form. IX) | Compound | Hygroscopicity in words (compared to Form I) [2] | Competitive slurry 2: crystal form after slurry [3] | Competitive slurry: crystal form after slurry [4]
1 | transformed into Form III | 0.27% | – | CC[C@H](Nc1ncnc2[nH]cnc12)c1nc2cccc(F)c2c(=O)n1-c1ccccc1 [Form IV, 5-fluoro-3-phenyl-2-[(S)-1-(9H-purin-6-ylamino)-propyl]-3H-quinazoline-4-one] | less hygroscopic; also recorded: least hygroscopicity; also recorded: low hygroscopicity | – | –
2 | transformed into Form III | 0.95% | – | CC[C@H](Nc1ncnc2[nH]cnc12)c1nc2cccc(F)c2c(=O)n1-c1ccccc1 [Form I, 5-fluoro-3-phenyl-2-[(S)-1-(9H-purin-6-ylamino)-propyl]-3H-quinazoline-4-one, reference compound] | – | – | transformed into Form IX
3 | – | 0.3% | low hygroscopicity | CC[C@H](Nc1ncnc2[nH]cnc12)c1nc2cccc(F)c2c(=O)n1-c1ccccc1 [Form IX, 5-fluoro-3-phenyl-2-[(S)-1-(9H-purin-6-ylamino)-propyl]-3H-quinazoline-4-one] | less hygroscopic; also recorded: lower hygroscopicity; also recorded: least hygroscopicity | transformed into Form VI; also recorded: Form VI, while Form VI | more stable; also recorded: remained unchanged; also recorded: unchanged, while Form I

Second part, the molecule before the results:

Row | Compound | Competitive slurry 1: crystal form after slurry [1] | Weight change within 20%-80% RH range [2] | Hygroscopicity in words (compared to Form I) ([2]; listed as Form. IX) | Hygroscopicity in words (compared to Form I) [2] | Competitive slurry 2: crystal form after slurry [3] | Competitive slurry: crystal form after slurry [4]
4 | CC[C@H](Nc1ncnc2[nH]cnc12)c1nc2cccc(F)c2c(=O)n1-c1ccccc1 [Form III, 5-fluoro-3-phenyl-2-[(S)-1-(9H-purin-6-ylamino)-propyl]-3H-quinazoline-4-one] | thermodynamically the most stable form; also recorded: III remained unchanged | 0.44% | – | less hygroscopic | – | –
5 | CC[C@H](Nc1ncnc2[nH]cnc12)c1nc2cccc(F)c2c(=O)n1-c1ccccc1 [Form VI, 5-fluoro-3-phenyl-2-[(S)-1-(9H-purin-6-ylamino)-propyl]-3H-quinazoline-4-one] | – | 0.57% | – | lower hygroscopicity; also recorded: less hygroscopic | remained unchanged | –
6 | CC[C@H](Nc1ncnc2[nH]cnc12)c1nc2cccc(F)c2c(=O)n1-c1ccccc1 [Form VIII, 5-fluoro-3-phenyl-2-[(S)-1-(9H-purin-6-ylamino)-propyl]-3H-quinazoline-4-one] | transformed into Form III | 0.84% | – | less hygroscopic; also recorded: low hygroscopicity | – | –
7 | CC[C@H](Nc1ncnc2[nH]cnc12)c1nc2cccc(F)c2c(=O)n1-c1ccccc1 [Form II, 5-fluoro-3-phenyl-2-[(S)-1-(9H-purin-6-ylamino)-propyl]-3H-quinazoline-4-one] | transformed into Form III | 0.46% | – | less hygroscopic | – | –
